Results taken from paper PMC4303209, “A novel phosphatidylinositol 3-kinase (PI3K) inhibitor directs a potent FOXO-dependent, p53-independent cell cycle arrest phenotype characterized by the differential induction of a subset of FOXO-regulated genes” (Breast Cancer Research : BCR, 2014).

Test system: MCF-7 breast cancer cells
Experiment: Microarray gene expression analysis (Agilent whole human genome 4 x 44K; compound vs DMSO, LIMMA log2 fold change)
Format: cell-based
Details: Apoptosis genes

Compound: Oc1cccc(-c2nc(N3CCOCC3)c3oc4ncccc4c3n2)c1 [PI-103]
- TBX1 log2FC (Gene 6899): 0.079
- TBX5 log2FC (Gene 6910): 0.103
- TBX3 log2FC (Gene 6926): -0.691
- TCF7L2 log2FC (Gene 6934): 0.036
- TDGF1 log2FC (Gene 6997): 0.005
- PRDX2 log2FC (Gene 7001): 0.385
- TERF1 log2FC (Gene 7013): 0.376
- TERT log2FC (Gene 7015): -0.048
- TFAP2A log2FC (Gene 7020): -0.507
- TFAP2B log2FC (Gene 7021): -0.150
- TFAP4 log2FC (Gene 7023): 0.386
- TGFA log2FC (Gene 7039): -0.533
- TGFB1 log2FC (Gene 7040): -0.436
- TGFB3 log2FC (Gene 7043): 0.355
- TGFBR1 log2FC (Gene 7046): 0.121
- TGFBR2 log2FC (Gene 7048): 0.950
- TGM2 log2FC (Gene 7052): -0.690
- THBS1 log2FC (Gene 7057): -0.908
- THRA log2FC (Gene 7067): 0.660
- TIA1 log2FC (Gene 7072): 0.065
- TIAL1 log2FC (Gene 7073): 0.160
- TIAM1 log2FC (Gene 7074): -0.173
- TIMP1 log2FC (Gene 7076): -0.137
- TJP1 log2FC (Gene 7082): 0.317
- TLE1 log2FC (Gene 7088): 0.501
- TLR2 log2FC (Gene 7097): -0.157
- TLR3 log2FC (Gene 7098): 0.801
- NR2E1 log2FC (Gene 7101): -0.112
- TMF1 log2FC (Gene 7110): 0.594
- TNF log2FC (Gene 7124): -1.866
- TNFAIP1 log2FC (Gene 7126): -0.271
- TNFAIP3 log2FC (Gene 7128): -0.853
- TNFRSF1A log2FC (Gene 7132): -0.921
- TOP2A log2FC (Gene 7153): 0.914
- TP53 log2FC (Gene 7157): 0.057
- TP53BP2 log2FC (Gene 7159): 0.347
- TP73 log2FC (Gene 7161): -0.255
- TPD52L1 log2FC (Gene 7164): 0.154
- TPT1 log2FC (Gene 7178): 0.376
- HSP90B1 log2FC (Gene 7184): 0.295
- TRAF1 log2FC (Gene 7185): -0.626
- TRAF3 log2FC (Gene 7187): -0.946
- TRAF5 log2FC (Gene 7188): 0.350
- TRAF6 log2FC (Gene 7189): -0.154
- TRIO log2FC (Gene 7204): 0.335
- TRPS1 log2FC (Gene 7227): 0.634
- PHLDA2 log2FC (Gene 7262): -3.120
- TWIST1 log2FC (Gene 7291): 0.425
- TNFRSF4 log2FC (Gene 7293): 0.091
- TYRO3 log2FC (Gene 7301): 0.021
- UBA52 log2FC (Gene 7311): 0.306
- UBB log2FC (Gene 7314): 0.036
- UBC log2FC (Gene 7316): 0.333
- UBE2B log2FC (Gene 7320): 0.652
- UBE2D3 log2FC (Gene 7323): -0.368
- UCN log2FC (Gene 7349): 0.293
- UCP2 log2FC (Gene 7351): 0.166
- UNG log2FC (Gene 7374): -0.352
- VAV1 log2FC (Gene 7409): 0.641
- VAV2 log2FC (Gene 7410): 0.038
- VCP log2FC (Gene 7415): -0.262
- VDAC1 log2FC (Gene 7416): -0.421
- VDR log2FC (Gene 7421): -1.024
- VEGFB log2FC (Gene 7423): 0.125
- VHL log2FC (Gene 7428): -0.079
- WFS1 log2FC (Gene 7466): -0.599
- WNT5A log2FC (Gene 7474): 0.134
- WNT7A log2FC (Gene 7476): -0.086
- WNT7B log2FC (Gene 7477): -0.378
- WNT10B log2FC (Gene 7480): -0.488
- WNT11 log2FC (Gene 7481): -0.088
- WNT9A log2FC (Gene 7483): 0.041
- WRN log2FC (Gene 7486): 0.379
- WT1 log2FC (Gene 7490): -0.652
- XDH log2FC (Gene 7498): 0.004
- XPA log2FC (Gene 7507): 0.468
- XRCC2 log2FC (Gene 7516): -0.599
- XRCC4 log2FC (Gene 7518): 0.561
- YWHAB log2FC (Gene 7529): 0.178
- YWHAE log2FC (Gene 7531): 0.050
- YWHAG log2FC (Gene 7532): -0.883
- YWHAH log2FC (Gene 7533): -0.481
- YWHAZ log2FC (Gene 7534): -0.301
- ZNF16 log2FC (Gene 7564): 0.344
- PCGF2 log2FC (Gene 7703): -0.113
- DAP3 log2FC (Gene 7818): 0.276
- BTG2 log2FC (Gene 7832): -1.051
- PAX8 log2FC (Gene 7849): 0.485
- FZD5 log2FC (Gene 7855): -0.196
- SCG2 log2FC (Gene 7857): 0.168
- NR4A3 log2FC (Gene 8013): 0.337
- LHX3 log2FC (Gene 8022): 0.039
- RASSF7 log2FC (Gene 8045): 0.194
- FOSL1 log2FC (Gene 8061): -2.531
- CUL5 log2FC (Gene 8065): -0.235
- FXR1 log2FC (Gene 8087): 0.653
- HMGA2 log2FC (Gene 8091): -1.508
- GDF5 log2FC (Gene 8200): -0.438
- RBM10 log2FC (Gene 8241): -0.115
- AXIN1 log2FC (Gene 8312): 0.422
- NME5 log2FC (Gene 8382): 0.271
- PLA2G6 log2FC (Gene 8398): -0.123
- SRPX log2FC (Gene 8406): 0.201
- STK24 log2FC (Gene 8428): -0.049
- NSMAF log2FC (Gene 8439): 0.165
- DYRK2 log2FC (Gene 8445): -0.467
- CUL4A log2FC (Gene 8451): 0.376
- CUL3 log2FC (Gene 8452): 0.00335
- CUL2 log2FC (Gene 8453): 0.251
- CUL1 log2FC (Gene 8454): 0.207
- KLF11 log2FC (Gene 8462): 1.202
- OGT log2FC (Gene 8473): 0.352
- IKBKG log2FC (Gene 8517): -0.216
- CBX4 log2FC (Gene 8535): -0.090
- API5 log2FC (Gene 8539): -0.497
- YARS log2FC (Gene 8565): -0.500
- MADD log2FC (Gene 8567): 0.749
- UNC5C log2FC (Gene 8633): 0.011
- AKR1C3 log2FC (Gene 8644): 0.528
- NCOA1 log2FC (Gene 8648): 0.476
- DYNLL1 log2FC (Gene 8655): -1.055
- IRS2 log2FC (Gene 8660): 0.876
- BECN1 log2FC (Gene 8678): 0.354
- PEA15 log2FC (Gene 8682): 0.569
- HYAL2 log2FC (Gene 8692): -0.333
- TRADD log2FC (Gene 8717): 0.506
- TNFRSF25 log2FC (Gene 8718): -0.549
- RIPK1 log2FC (Gene 8737): -0.336
- CRADD log2FC (Gene 8738): -0.080
- HRK log2FC (Gene 8739): 0.399
- RIPK2 log2FC (Gene 8767): 0.379
- TNFRSF6B log2FC (Gene 8771): -1.304
- FADD log2FC (Gene 8772): -0.617
- TNFRSF18 log2FC (Gene 8784): -0.038
- TNFRSF10D log2FC (Gene 8793): -0.508
- TNFRSF10B log2FC (Gene 8795): -0.908
- TNFRSF10A log2FC (Gene 8797): -0.907
- TRIM24 log2FC (Gene 8805): 0.826
- NRP1 log2FC (Gene 8829): -0.252
- SYNGAP1 log2FC (Gene 8831): -0.399
- SOCS2 log2FC (Gene 8835): 0.381
- CFLAR log2FC (Gene 8837): -0.542
- HDAC3 log2FC (Gene 8841): -0.248
- ALKBH1 log2FC (Gene 8846): -0.111
- TSC22D1 log2FC (Gene 8848): 0.388
- CDK5R1 log2FC (Gene 8851): -0.328
- ALDH1A2 log2FC (Gene 8854): 0.042
- IER3 log2FC (Gene 8870): -2.265
- ARHGEF7 log2FC (Gene 8874): 0.044
- SPHK1 log2FC (Gene 8877): -0.416
- SQSTM1 log2FC (Gene 8878): 0.782
- SGPL1 log2FC (Gene 8879): -0.0047
- TAX1BP1 log2FC (Gene 8887): 1.267
- BCL10 log2FC (Gene 8915): 0.116
- MBD4 log2FC (Gene 8930): 0.294
- NOL3 log2FC (Gene 8996): 0.486
